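Abbreviation: GI50, concentration required for 50% inhibition of growth. TGI: total growth inhibition.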
Columns and labels:
Experiment in all cases: NCI tumour cell line growth inhibition, 384-well format
[1] = test system: HL-60(TB) leukemia
[2] = test system: RXF 393 renal
[3] = test system: HOP-62 NSCLC
[4] = test system: OVCAR-8 ovarian
[5] = test system: SNB-19 CNS
[6] = test system: COLO 205 colon
[7] = test system: HCC-2998 colon
[8] = test system: BT-549 breast
[9] = test system: SR leukemia
[10] = test system: SK-MEL-5 melanoma
[11] = test system: SK-MEL-28 melanoma
[12] = test system: PC-3 prostate
[13] = test system: A549 NSCLC
[14] = test system: SF-295 CNS
[15] = test system: SF-268 CNS
[16] = test system: HCT-15 colon
[17] = test system: HS 578T breast
[18] = test system: SN12C renal
[19] = test system: EKVX NSCLC
[20] = test system: OVCAR-3 ovarian
[21] = test system: ACHN renal
[22] = test system: OVCAR-4 ovarian
[23] = test system: CCRF-CEM leukemia
[24] = test system: IGROV1 ovarian
[25] = test system: NCI/ADR-RES ovarian
[26] = test system: OVCAR-5 ovarian
[27] = test system: SF-539 CNS
[28] = test system: NCI-H522 lung

CN(C)CCNC(=O)c1cccc2cc3ccccc3nc12
GI50 [1]: 252 nM
TGI [1]: 462 nM
GI50 [2]: 1120 nM
TGI [2]: 2360 nM
GI50 [3]: 494 nM
TGI [3]: 1850 nM
GI50 [4]: 611 nM
TGI [4]: 1840 nM
GI50 [5]: 784 nM
TGI [5]: 2690 nM
GI50 [6]: 336 nM
TGI [6]: 651 nM
GI50 [7]: 1460 nM
TGI [7]: 2860 nM
GI50 [8]: 532 nM
TGI [8]: 1680 nM
GI50 [9]: 198 nM
TGI [9]: 349 nM
GI50 [10]: 1180 nM
TGI [10]: 2420 nM
GI50 [11]: 1620 nM
TGI [11]: 3010 nM
GI50 [12]: 1460 nM
TGI [12]: 3290 nM
GI50 [13]: 619 nM
TGI [13]: 1900 nM
GI50 [14]: 974 nM
TGI [14]: 2380 nM
GI50 [15]: 1150 nM
TGI [15]: 2470 nM
GI50 [16]: 628 nM
TGI [16]: 2020 nM
GI50 [17]: 287 nM
TGI [17]: 883 nM
GI50 [18]: 1260 nM
TGI [18]: 2740 nM
GI50 [19]: 1740 nM
TGI [19]: 3670 nM
GI50 [20]: 1340 nM
TGI [20]: 2810 nM
GI50 [21]: 961 nM
TGI [21]: 2280 nM
GI50 [22]: 1790 nM
TGI [22]: 3610 nM
GI50 [23]: 246 nM
TGI [23]: 673 nM
GI50 [24]: 1140 nM
TGI [24]: 2460 nM
GI50 [25]: 876 nM
TGI [25]: 2270 nM
GI50 [26]: 1440 nM
TGI [26]: 3690 nM
GI50 [27]: 449 nM
TGI [27]: 1510 nM
GI50 [28]: 1240 nM
TGI [28]: 2510 nM

Source: PubChem BioAssay (NCI)
